Assay results published in patent US20250145665A1, “MACROCYCLIC PEPTIDES USEFUL AS MODULATORS OF TNF ALPHA” (Bristol-Myers Squibb Company, priority 2023, published 2025).
Positions of bridges follow the written chain, without caps; N, C: chain ends. Non-standard residues stand in square brackets, D forms with d. Residues, ends and D or L forms follow the SMILES beside them. Bip(4'-COOH) = N[C@@H](Cc1ccc(-c2ccc(C(=O)O)cc2)cc1)C(=O)O; Bip(4'-NHAc) = CC(=O)Nc1ccc(-c2ccc(C[C@H](N)C(=O)O)cc2)cc1; Ala(morpholin-4-yl) = N[C@@H](CN1CCOCC1)C(=O)O; Bip = N[C@@H](Cc1ccc(-c2ccccc2)cc1)C(=O)O; NMeF = CN[C@@H](Cc1ccccc1)C(=O)O; 2Pal = N[C@@H](Cc1ccccn1)C(=O)O; 3Pal = N[C@@H](Cc1cccnc1)C(=O)O; Chg = N[C@H](C(=O)O)C1CCCCC1; Aze = O=C(O)[C@@H]1CCN1; Sar = CNCC(=O)O

The compounds below were run against TNFα (Homo sapiens, UniProt P01375) (assay: TNF-Induced HEK-Blue Assay). Settings: HEK-Blue-CD40L cells, NF-kB-driven secreted alkaline phosphatase reporter; TNFα 0.5 ng/ml; 18 h; read-out: TNF induced HEK-Blue assay IC50 value.
Assay type: cell-based

TNFα, sequence (P01375 77-233 limits assumed): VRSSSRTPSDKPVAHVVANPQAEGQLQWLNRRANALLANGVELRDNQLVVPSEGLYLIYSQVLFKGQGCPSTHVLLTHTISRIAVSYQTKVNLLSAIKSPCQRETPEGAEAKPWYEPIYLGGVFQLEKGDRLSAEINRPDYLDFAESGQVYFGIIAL

Compound | IC50 [µM]
CC(=O)Nc1ccc(-c2ccc(C[C@@H]3NC(=O)[C@H](Cc4ccc(-c5ccccc5)cc4)NC(=O)[C@H](CN4CCOCC4)NC(=O)CSC[C@@H](C(=O)NCC(N)=O)NC(=O)[C@H](CC(C)C)NC(=O)[C@H](CCCNC(=N)N)NC(=O)[C@H](C(C)C)NC(=O)[C@@H]4CCCN4C(=O)[C@H](C(C)C)NC(=O)[C@@H](CCCNC(=N)N)NC(=O)[C@H](CC(=O)O)NC(=O)[C@H](Cc4cnc[nH]4)NC(=O)CN(C)C3=O)cc2)cc1 [Example 212] ({CH2CO}-[Ala(morpholin-4-yl)][Bip][Bip(4'-NHAc)][Sar]HD[dR]VPVRLCG-NH2; thioether N-13) | < 0.05
CC(=O)Nc1ccc(-c2ccc(C[C@@H]3NC(=O)[C@H](Cc4ccc(-c5ccccc5)cc4)NC(=O)[C@H](CN4CCOCC4)NC(=O)CSC[C@@H](C(=O)NCC(N)=O)NC(=O)[C@H](CC(C)C)NC(=O)[C@H](Cc4cnc[nH]4)NC(=O)[C@H](C(C)C)NC(=O)[C@@H]4CCCN4C(=O)[C@H](C(C)C)NC(=O)[C@@H](CCCNC(=N)N)NC(=O)[C@H](CC(=O)O)NC(=O)[C@H](Cc4ccc(O)cc4)NC(=O)CN(C)C3=O)cc2)cc1 [Example 213] ({CH2CO}-[Ala(morpholin-4-yl)][Bip][Bip(4'-NHAc)][Sar]YD[dR]VPVHLCG-NH2; thioether N-13) | < 0.05
CC(C)C[C@@H]1NC(=O)[C@H](Cc2ccccc2)NC(=O)[C@H](C(C)C)NC(=O)[C@@H]2CCCN2C(=O)[C@H](C(C)C)NC(=O)[C@@H](CCCNC(=N)N)NC(=O)[C@H](CC(=O)O)NC(=O)[C@H](Cc2ccccc2)NC(=O)CN(C)C(=O)[C@H](Cc2ccc(-c3ccccc3)cc2)NC(=O)[C@H](Cc2ccc(-c3ccc(C(=O)O)cc3)cc2)NC(=O)[C@H](CN2CCOCC2)NC(=O)CSC[C@@H](C(=O)NCC(N)=O)NC1=O [Example 216] ({CH2CO}-[Ala(morpholin-4-yl)][Bip(4'-COOH)][Bip][Sar]FD[dR]VPVFLCG-NH2; thioether N-13) | 0.2 to 2
CC(=O)Nc1ccc(-c2ccc(C[C@@H]3NC(=O)[C@H](Cc4ccc(-c5ccccc5)cc4)NC(=O)[C@H](CN4CCOCC4)NC(=O)CSC[C@@H](C(=O)NCC(N)=O)NC(=O)[C@H](CC(C)C)NC(=O)[C@H](Cc4ccccc4)NC(=O)[C@H](C(C)C)NC(=O)[C@@H]4CCN4C(=O)[C@H](C(C)C)NC(=O)[C@@H](CCCNC(=N)N)NC(=O)[C@H](CC(=O)O)NC(=O)[C@H](Cc4ccccc4)NC(=O)CN(C)C3=O)cc2)cc1 [Example 217] ({CH2CO}-[Ala(morpholin-4-yl)][Bip][Bip(4'-NHAc)][Sar]FD[dR]V[Aze]VFLCG-NH2; thioether N-13) | 0.05 to 0.2
CC(=O)Nc1ccc(-c2ccc(C[C@@H]3NC(=O)[C@H](Cc4ccc(-c5ccccc5)cc4)NC(=O)[C@H](CN4CCOCC4)NC(=O)CSC[C@@H](C(=O)NCC(N)=O)NC(=O)[C@H](CC(C)C)NC(=O)[C@H](CCCNC(=N)N)NC(=O)[C@H](C4CCCCC4)NC(=O)[C@@H]4CCCN4C(=O)[C@H](CC(N)=O)NC(=O)[C@@H](CCCNC(=N)N)NC(=O)[C@H](CC(=O)O)NC(=O)[C@H](Cc4ccccn4)NC(=O)CN(C)C3=O)cc2)cc1 [Example 218] ({CH2CO}-[Ala(morpholin-4-yl)][Bip][Bip(4'-NHAc)][Sar][2Pal]D[dR]NP[Chg]RLCG-NH2; thioether N-13) | 0.05 to 0.2
CC(C)C[C@@H]1NC(=O)[C@H](Cc2ccccc2)N(C)C(=O)[C@H](C(C)C)NC(=O)[C@@H]2CCCN2C(=O)[C@H](C(C)C)NC(=O)[C@@H](CCCNC(=N)N)NC(=O)[C@H](CC(=O)O)NC(=O)[C@H](Cc2ccc(O)cc2)NC(=O)CN(C)C(=O)[C@H](Cc2ccc(-c3ccccc3)cc2)NC(=O)[C@H](Cc2ccc(-c3ccc(C(=O)O)cc3)cc2)NC(=O)[C@H](CN2CCOCC2)NC(=O)CSC[C@@H](C(=O)NCC(N)=O)NC1=O [Example 220] ({CH2CO}-[Ala(morpholin-4-yl)][Bip(4'-COOH)][Bip][Sar]YD[dR]VPV[NMeF]LCG-NH2; thioether N-13) | < 0.05
CC(=O)Nc1ccc(-c2ccc(C[C@@H]3NC(=O)[C@H](Cc4ccc(-c5ccccc5)cc4)NC(=O)[C@H](CN4CCOCC4)NC(=O)CSC[C@@H](C(=O)NCC(N)=O)NC(=O)[C@H](CC(C)C)NC(=O)[C@H](Cc4ccc(O)cc4)NC(=O)[C@H](C(C)C)NC(=O)[C@@H]4CCN4C(=O)[C@H](C(C)C)NC(=O)[C@@H](CCCNC(=N)N)NC(=O)[C@H](CC(=O)O)NC(=O)[C@H](Cc4ccccc4)NC(=O)CN(C)C3=O)cc2)cc1 [Example 221] ({CH2CO}-[Ala(morpholin-4-yl)][Bip][Bip(4'-NHAc)][Sar]FD[dR]V[Aze]VYLCG-NH2; thioether N-13) | < 0.05
CC(=O)Nc1ccc(-c2ccc(C[C@@H]3NC(=O)[C@H](Cc4ccc(-c5ccccc5)cc4)NC(=O)[C@H](CN4CCOCC4)NC(=O)CSC[C@@H](C(=O)NCC(N)=O)NC(=O)[C@H](CC(C)C)NC(=O)[C@H](Cc4ccccn4)NC(=O)[C@H](C(C)C)NC(=O)[C@@H]4CCCN4C(=O)[C@H](C(C)C)NC(=O)[C@@H](CCCNC(=N)N)NC(=O)[C@H](CC(=O)O)NC(=O)[C@H](Cc4ccc(O)cc4)NC(=O)CN(C)C3=O)cc2)cc1 [Example 222] ({CH2CO}-[Ala(morpholin-4-yl)][Bip][Bip(4'-NHAc)][Sar]YD[dR]VPV[2Pal]LCG-NH2; thioether N-13) | < 0.05
CC(=O)Nc1ccc(-c2ccc(C[C@@H]3NC(=O)[C@H](Cc4ccc(-c5ccccc5)cc4)NC(=O)[C@H](CN4CCOCC4)NC(=O)CSC[C@@H](C(=O)NCC(N)=O)NC(=O)[C@H](CC(C)C)NC(=O)[C@H](Cc4cccnc4)NC(=O)[C@H](C(C)C)NC(=O)[C@@H]4CCCN4C(=O)[C@H](C(C)C)NC(=O)[C@@H](CCCNC(=N)N)NC(=O)[C@H](CC(=O)O)NC(=O)[C@H](Cc4ccc(O)cc4)NC(=O)CN(C)C3=O)cc2)cc1 [Example 223] ({CH2CO}-[Ala(morpholin-4-yl)][Bip][Bip(4'-NHAc)][Sar]YD[dR]VPV[3Pal]LCG-NH2; thioether N-13) | < 0.05
CC(=O)Nc1ccc(-c2ccc(C[C@@H]3NC(=O)[C@H](Cc4ccc(-c5ccc(C(=O)O)cc5)cc4)NC(=O)[C@H](CN4CCOCC4)NC(=O)CSC[C@@H](C(=O)NCC(N)=O)NC(=O)[C@H](CC(C)C)NC(=O)[C@H](Cc4ccccc4)NC(=O)[C@H](C(C)C)NC(=O)[C@@H]4CCCN4C(=O)[C@H](C(C)C)NC(=O)[C@@H](CCCNC(=N)N)NC(=O)[C@H](CC(=O)O)NC(=O)[C@H](Cc4ccccc4)NC(=O)CN(C)C3=O)cc2)cc1 [Example 225] ({CH2CO}-[Ala(morpholin-4-yl)][Bip(4'-COOH)][Bip(4'-NHAc)][Sar]FD[dR]VPVFLCG-NH2; thioether N-13) | 0.05 to 0.2
CC(=O)Nc1ccc(-c2ccc(C[C@@H]3NC(=O)[C@H](Cc4ccc(-c5ccc(C(=O)O)cc5)cc4)NC(=O)[C@H](CN4CCOCC4)NC(=O)CSC[C@@H](C(=O)NCC(N)=O)NC(=O)[C@H](CC(C)C)NC(=O)[C@H](CCCNC(=N)N)NC(=O)[C@H](C(C)C)NC(=O)[C@@H]4CCCN4C(=O)[C@H](CC(N)=O)NC(=O)[C@@H](CCCNC(=N)N)NC(=O)[C@H](CC(=O)O)NC(=O)[C@H](Cc4ccccn4)NC(=O)CN(C)C3=O)cc2)cc1 [Example 226] ({CH2CO}-[Ala(morpholin-4-yl)][Bip(4'-COOH)][Bip(4'-NHAc)][Sar][2Pal]D[dR]NPVRLCG-NH2; thioether N-13) | 0.05 to 0.2
CC(=O)Nc1ccc(-c2ccc(C[C@@H]3NC(=O)[C@H](Cc4ccc(-c5ccccc5)cc4)NC(=O)[C@H](CN4CCOCC4)NC(=O)CSC[C@@H](C(=O)NCC(N)=O)NC(=O)[C@H](CC(C)C)NC(=O)[C@H](Cc4ccccc4)NC(=O)[C@H](C(C)C)NC(=O)[C@@H]4CCCN4C(=O)[C@H](C(C)C)NC(=O)[C@@H](CCCNC(=N)N)NC(=O)[C@H](CC(=O)O)NC(=O)[C@H](Cc4ccccn4)NC(=O)CN(C)C3=O)cc2)cc1 [Example 227] ({CH2CO}-[Ala(morpholin-4-yl)][Bip][Bip(4'-NHAc)][Sar][2Pal]D[dR]VPVFLCG-NH2; thioether N-13) | 0.05 to 0.2
CC(=O)Nc1ccc(-c2ccc(C[C@@H]3NC(=O)[C@H](Cc4ccc(-c5ccccc5)cc4)NC(=O)[C@H](CN4CCOCC4)NC(=O)CSC[C@@H](C(=O)NCC(N)=O)NC(=O)[C@H](CC(C)C)NC(=O)[C@H](Cc4ccccn4)NC(=O)[C@H](C(C)C)NC(=O)[C@@H]4CCCN4C(=O)[C@H](C(C)C)NC(=O)[C@@H](CCCNC(=N)N)NC(=O)[C@H](CC(=O)O)NC(=O)[C@H](Cc4ccccc4)NC(=O)CN(C)C3=O)cc2)cc1 [Example 228] ({CH2CO}-[Ala(morpholin-4-yl)][Bip][Bip(4'-NHAc)][Sar]FD[dR]VPV[2Pal]LCG-NH2; thioether N-13) | < 0.05
CC(C)C[C@@H]1NC(=O)[C@H](CCCNC(=N)N)NC(=O)[C@H](C(C)C)NC(=O)[C@@H]2CCCN2C(=O)[C@H](C(C)C)NC(=O)[C@@H](CCCNC(=N)N)NC(=O)[C@H](CC(=O)O)NC(=O)[C@H](Cc2cnc[nH]2)NC(=O)CN(C)C(=O)[C@H](Cc2ccc(-c3ccccc3)cc2)NC(=O)[C@H](Cc2ccc(-c3ccccc3)cc2)NC(=O)[C@H](CN2CCOCC2)NC(=O)CSC[C@@H](C(=O)NCC(N)=O)NC1=O [Example 229] ({CH2CO}-[Ala(morpholin-4-yl)][Bip][Bip][Sar]HD[dR]VPVRLCG-NH2; thioether N-13) | 0.05 to 0.2
CC(C)C[C@@H]1NC(=O)[C@H](CCCNC(=N)N)NC(=O)[C@H](C2CCCCC2)NC(=O)[C@@H]2CCCN2C(=O)[C@H](C(C)C)NC(=O)[C@@H](CCCNC(=N)N)NC(=O)[C@H](CC(=O)O)NC(=O)[C@H](Cc2cnc[nH]2)NC(=O)CN(C)C(=O)[C@H](Cc2ccc(-c3ccccc3)cc2)NC(=O)[C@H](Cc2ccc(-c3ccccc3)cc2)NC(=O)[C@H](CN2CCOCC2)NC(=O)CSC[C@@H](C(=O)NCC(N)=O)NC1=O [Example 230] ({CH2CO}-[Ala(morpholin-4-yl)][Bip][Bip][Sar]HD[dR]VP[Chg]RLCG-NH2; thioether N-13) | 0.05 to 0.2
CC(C)C[C@@H]1NC(=O)[C@H](Cc2ccccc2)NC(=O)[C@H](C(C)C)NC(=O)[C@@H]2CCCN2C(=O)[C@H](C(C)C)NC(=O)[C@@H](CCCNC(=N)N)NC(=O)[C@H](CC(=O)O)NC(=O)[C@H](Cc2cnc[nH]2)NC(=O)CN(C)C(=O)[C@H](Cc2ccc(-c3ccccc3)cc2)NC(=O)[C@H](Cc2ccc(-c3ccccc3)cc2)NC(=O)[C@H](CN2CCOCC2)NC(=O)CSC[C@@H](C(=O)NCC(N)=O)NC1=O [Example 231] ({CH2CO}-[Ala(morpholin-4-yl)][Bip][Bip][Sar]HD[dR]VPVFLCG-NH2; thioether N-13) | 0.05 to 0.2
